Legend:
thymus = tested on: thymus; design: species or system Male Wistar rats; details: rat, in vivo, 10080 min
Text: All of the steroids described in this invention are pharmacologically active compounds. The glucocorticoid activity of these products was studied in comparison with that of budesonide: pregna-1,4-diene-3,20-dione, 16,17-butylidenebis(oxy)-11-21-dihydroxy-(11β,16α). The pharmacologic action on the acetonides triamcinolone acetonide and flunisolide was also studied.
(§1) Anti-inflammatory effects of the compounds were screened in the cotton pellet granuloma bioassay for identification of lead compounds. (Meier et al., Eperimentia 6, 469, 1950). Male Wistar rats were used, ranging in weight between 90 and 120 g, at the rate of 10 animals per group, previously identified and quartered in individual cages. The animals had free access to feed and drink throughout the trial.
(§2) Cotton pellets weighing exactly 20 mg were prepared, sterilized for 2 hr. at 160° C. soaked with 50 λl solution of the product or with the solvent before implantation, and subsequently the solvent is evaporated before application. The implantation was performed subcutaneously in the axillary zone of the animals previously anesthetized with ether (right axilla pellet with product, left axilla pellet with solvent). Animals in which pellets without product were implanted were used as controls.
(§3) The drug was applied in alcohol solution at 4 dosage levels. Once the pellets were implanted, the animals were kept under normal rearing conditions, isolated for 7 days and then weighed, after which they were sacrificed by exsanguination.
Extraction and weighing of the thymus and adrenals were performed in all animals and a fluorometric determination of the cortisol plasma levels was made. We consider the variation in these parameters indicative of the systemic glucocorticoid activity of the products.
(§4) Anti-inflammatory ED50 (topical effect), thymus inhibition ED50 (systemic effect), therapeutic index (systemic ED50 /topical ED50), and the therapeutic index relative to budesonide (=1).
(§5) All of the ED50 values were calculated from the linear regression lines with the confidence limits.

[1] = tested on: cotton-pellet-induced granuloma; assay: cotton pellet granuloma bioassay, topical anti-inflammatory activity (inhibitory effect on granuloma weight); format: in vivo, Male Wistar rats; details: for Topical anti-inflammatory activity (Cotton Pellet), ED50: local application on implanted pellet, 4 dosage levels, 7 days; for Therapeutic index systemic ED50 / topical ED50: thymus inhibition ED50 / cotton pellet ED50, 10080 min
Text: The glucocorticoid activity of these products was studied in comparison with that of budesonide: pregna-1,4-diene-3,20-dione, 16,17-butylidenebis(oxy)-11-21-dihydroxy-(11β,16α). The pharmacologic action on the acetonides triamcinolone acetonide and flunisolide was also studied.
as §1, §2, §3
The topical activity was determined by the inhibitory effect on the weight of the cotton-pellet-induced granuloma; the granulomas were extracted and weighed (pellet and connective tissue surrounding them, dried for 24 hr in a 60° oven, and weighed).
as §4, §5

[2] = corticosteroids used in aerosol form; cited from earlier work

SMILES	Systemic glucocorticoid activity (Thymus inhibition), ED50 (thymus)	Topical anti-inflammatory activity (Cotton Pellet), ED50 [1]	Therapeutic index systemic ED50 / topical ED50 [1]	effect in aerosol form [2]
CC1(C)O[C@@H]2C[C@H]3[C@@H]4CCC5=CC(=O)C=C[C@]5(C)[C@@]4(F)[C@@H](O)C[C@]3(C)[C@]2(C(=O)CO)O1 (stereo in doubt) [TRIAMCINOLONE ACETONIDE, triamcinolone acetonide, reference compound]	156.4 μg/pellet	220.7 μg/pellet	0.7	highly positive effect
CCCC1O[C@@H]2C[C@H]3[C@@H]4CCC5=CC(=O)C=C[C@]5(C)[C@H]4[C@@H](O)C[C@]3(C)[C@]2(C(=O)CO)O1 (stereo partly drawn) [BUDESONIDE, pregna-1,4-diene-3,20-dione, 16,17-butylidenebis(oxy)-11-21-dihydroxy-(11β,16α), reference compound]	178.6 μg/pellet	163.6 μg/pellet	1.09	highly positive effect
CC(C)C(=O)OCC(=O)C12OC(C3CCCCC3)OC1CC1C3CCC4=CC(=O)C=CC4(C)C3C(O)CC12C [Compound 7, (22R,S)-pregna 1,4-diene-3,20-dione, 16,17-[[cyclohexylmethylidyne]bis (oxy)]-11-hydroxy-21-(2-methyl-1-oxo-propoxy)-(11β,16α)]	614.7 μg/pellet	21.7 μg/pellet	28.3	–
CC(C)C(=O)OCC(=O)C12OC(C3CCCCC3)OC1CC1C3CCC4=CC(=O)C=CC4(C)C3C(O)CC12C [Compound 8, (22,S)-pregna 1,4-diene-3,20-dione 16,17-[[cyclohexyl-methylidyne]bis (oxy)]-11-hydroxy-21-(2-methyl-1-oxo-propoxy)-(11β,16α)]	608 μg/pellet	20.5 μg/pellet	29.6	–
CC(C)C(=O)OCC(=O)C12OC(C3CCCCC3)OC1CC1C3CCC4=CC(=O)C=CC4(C)C3C(O)CC12C (centres unmarked) [Compound 9]	667.1 μg/pellet	25.4 μg/pellet	26.2	–
CCCCC1OC2CC3C4CCC5=CC(=O)C=CC5(C)C4C(O)CC3(C)C2(C(=O)COC(C)=O)O1 [Compound 10, (22R,S)-of pregna 1,4-diene-3,20-dione-21-(acetyloxy)-11-hydroxy-16,17-(pentylidene) bis(oxy)-(11β,16α)]	583.2 μg/pellet	59.9 μg/pellet	9.7	–
CCCCC1OC2CC3C4CCC5=CC(=O)C=CC5(C)C4C(O)CC3(C)C2(C(=O)COC(C)=O)O1 [Compound 11, (22S)-pregna 1,4-diene-3,20-dione-21-(acetyloxy)-11-hydroxy-16,17-(pentylidene)-bis-(oxy)-(11β,16α)]	555.3 μg/pellet	43 μg/pellet	12.9	–
CCCCC1OC2CC3C4CCC5=CC(=O)C=CC5(C)C4C(O)CC3(C)C2(C(=O)COC(C)=O)O1 (centres unmarked) [Compound 12]	592.2 μg/pellet	74.7 μg/pellet	7.9	–
CC(C)C(=O)OCC(=O)C12OC(C3CCCCC3)OC1CC1C3CC(F)C4=CC(=O)C=CC4(C)C3(F)C(O)CC12C [Compound 13, (22R,S)-pregna 1,4-diene-3,20-dione-16,17-(cyclohyxylmethylidine)-bis-(oxy)-6,9-difluoro-11-hydroxy-21-(methyl-1-oxo-propoxy)-(11β,16α)]	54 μg/pellet	4.5 μg/pellet	12	–
CC(C)C(=O)OCC(=O)C12OC(C3CCCCC3)OC1CC1C3CC(F)C4=CC(=O)C=CC4(C)C3(F)C(O)CC12C [Compound 14, (22S)-pregna-1,4-diene-3,20-dione-16,17-(cyclohexylmethylidine)-bis-(oxy)-6,9-difluoro-11-hydroxy-21-(s-methyl-1-oxo-propoxy)-(11β,16α)]	49 μg/pellet	3.6 μg/pellet	13.6	–
CC(C)C(=O)OCC(=O)C12OC(C3CCCCC3)OC1CC1C3CC(F)C4=CC(=O)C=CC4(C)C3(F)C(O)CC12C (centres unmarked) [Compound 15]	56.3 μg/pellet	5.2 μg/pellet	10.8	–
CC1(C)O[C@@H]2C[C@H]3[C@@H]4C[C@H](F)C5=CC(=O)C=C[C@]5(C)[C@H]4[C@@H](O)C[C@]3(C)[C@]2(C(=O)CO)O1 [FLUNISOLIDE, flunisolide, reference compound]	156 μg/pellet	351.6 μg/pellet	0.44	highly positive effect
CCC(=O)OCC(=O)[C@@]1(OC(=O)CC)[C@@H](C)C[C@H]2[C@@H]3CCC4=CC(=O)C=C[C@]4(C)[C@@]3(Cl)[C@@H](O)C[C@@]21C [beclomethasone dipropionate]	–	–	–	highly positive effect
CCCCC(=O)O[C@]1(C(=O)CO)[C@@H](C)C[C@H]2[C@@H]3CCC4=CC(=O)C=C[C@]4(C)[C@@]3(F)[C@@H](O)C[C@@]21C [betamethasone valerate]	–	–	–	highly positive effect

Source: patent US5482934A, “Pregna-1,4-diene3,20-dione-16-17-acetal-21 esters, process for their preparation, composition, and methods for the treatment of inflammatory conditions” (priority 1994, dated 1996)
